# According to ChEMBL document CHEMBL1201862, “PubChem BioAssay data set” (2004):
# Active and inactive are the calls of the source.
# Experiments:
# [1] = biological target: Luciferin 4-monooxygenase (Photinus pyralis, UniProt P08659); test: firefly luciferase enzyme inhibitors, dose response, biochemical, luminescence (AID 1891)
# [2] = biological target: Neuropeptide Y receptor type 2 (Homo sapiens, UniProt P49146); type: functional, cell-based;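 note: HEK293 cells expressing the receptor and a CNG channel; stimulus was NPY near EC95 followed by isoproterenol to raise cAMP; antagonist potency measured as restoring cAMP signal that NPY suppresses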
# [3] = Luminescence Cell-Based Dose Confirmation HTS to Identify Inhibitors of Platelet Dense Granule Release. [Related pubchem assays: 1663 (Primary HTS), 1678 (Summary of Project)]; type: functional
# [4] = biological target: Neuropeptide Y receptor type 1 (Homo sapiens, UniProt P25929); type: functional;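 note: HEK293 cells with a CNG channel challenged with NPY then isoproterenol; potency as antagonist that reverses NPY suppression of cAMP signal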
# Streptococcus = test: Luminescence Microorganism-Based Dose Response Follow up to Identify Compounds Cytotoxic to Streptococcus. [Related pubchem assays: 1677 (Project Summary), 1915, 1914, 1902 (Retest at Dose), 1900 (Counter Screen), 1662 (Primary HTS)]; type: functional, organism-based
# Estrogen receptor beta [5] = biological target: T1, Estrogen receptor beta (Homo sapiens, UniProt Q92731); test: ERβ–SRC-3 coactivator interaction inhibitors, confirmation, orthogonal assay, biochemical, ELISA, streptavidin-HRP readout (AID 1060)
# Estrogen receptor beta [6] = biological target: T1, Estrogen receptor beta
# [7] = cytotoxicity toward Colo320 cells – cell-based, CellTiter-Glo luminescence, IC50, dose response (AID 1117334); type: functional; conditions: COLO 320
# [8] = cytotoxicity in KRAS-transformed pancreatic duct cells, primary screen, cell-based, fluorescence, HTS (AID 431); type: functional; conditions: Homo sapiens;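 note: cell line used: HPDE-C7K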
# [9] = Glucagon-like peptide 1 release potency, NCI-H716 cell line, dose-response, half-maximal inhibitory concentration (AID 1117344); type: functional, cell-based
# [10] = HCT116 cell viability decrease, GSK3B pretreatment – CellTiter-Glo, IC50, dose response (AID 1117339); type: functional; conditions: HCT-116
# [11] = cytotoxicity toward HCT116 cells – cell-based, CellTiter-Glo luminescence, IC50, dose response (AID 1117332); type: functional; conditions: HCT-116
# [12] = Concentration-dependent survival of SW480 colon cancer line, luminescence detection with CellTiter-Glo, half-maximal inhibitory concentration (AID 1117338); type: functional
# [13] = cytotoxicity toward HT-29 cells – cell-based, CellTiter-Glo luminescence, IC50, dose response (AID 1117330); type: functional
# [14] = RKO cell viability reduction, dose response, CellTiter-Glo luminescence (AID 1117322); type: functional
# [15] = cytotoxicity in HPDE-C7 cells, cell-based, fluorescence, HTS (AID 430); type: functional; conditions: Homo sapiens
# [16] = growth suppression of beta-catenin-knockout colon cells, dose response, cell-based, HCT116, human colon tumor (AID 1045); type: functional;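 note: HCT116 colon tumor cells with beta catenin knocked out; cells exposed to compound for 60 hours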
# [17] = half-maximal inhibitory concentration for glucagon-like peptide-1 release, STC-1 cell line, dose-response (AID 1117345); type: functional, cell-based
# [18] = SNU-C1 cell viability reduction, dose response, CellTiter-Glo luminescence (AID 1117323); type: functional, cell-based
# [19] = CellTiter-Glo luminescent dose response of DLD-1 viability loss (AID 1117352); type: functional
# [20] = growth suppression of PTEN-null colon cells, dose response, cell-based, HCT116 PTEN knockout (AID 1047); type: functional;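 note: HCT116 colon tumor cells with PTEN knocked out; cells exposed to compound for 60 hours before readout; potency for loss of cell viability measured by luminescence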
# [21] = biological target: T2, Ubiquitin-conjugating enzyme E2 N (Homo sapiens, UniProt P61088); type: functional;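 note: Dose-response confirmation in a TR-FRET assay detecting UBC13-driven polyubiquitin chain formation, inhibition measured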
# T2 sequence (P61088 whole entry): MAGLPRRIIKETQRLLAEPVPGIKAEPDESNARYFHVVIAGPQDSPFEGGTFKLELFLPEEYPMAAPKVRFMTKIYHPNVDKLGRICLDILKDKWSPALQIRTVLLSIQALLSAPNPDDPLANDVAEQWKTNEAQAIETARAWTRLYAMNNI
# [22] = biological target: T3, Replicative DNA helicase DnaB (Mycobacterium tuberculosis, UniProt P9WMR3); test: DnaB intein splicing inhibitors, dose response, biochemical, cell-free fluorescence (AID 449749); type: functional
# T3 sequence (P9WMR3 whole entry): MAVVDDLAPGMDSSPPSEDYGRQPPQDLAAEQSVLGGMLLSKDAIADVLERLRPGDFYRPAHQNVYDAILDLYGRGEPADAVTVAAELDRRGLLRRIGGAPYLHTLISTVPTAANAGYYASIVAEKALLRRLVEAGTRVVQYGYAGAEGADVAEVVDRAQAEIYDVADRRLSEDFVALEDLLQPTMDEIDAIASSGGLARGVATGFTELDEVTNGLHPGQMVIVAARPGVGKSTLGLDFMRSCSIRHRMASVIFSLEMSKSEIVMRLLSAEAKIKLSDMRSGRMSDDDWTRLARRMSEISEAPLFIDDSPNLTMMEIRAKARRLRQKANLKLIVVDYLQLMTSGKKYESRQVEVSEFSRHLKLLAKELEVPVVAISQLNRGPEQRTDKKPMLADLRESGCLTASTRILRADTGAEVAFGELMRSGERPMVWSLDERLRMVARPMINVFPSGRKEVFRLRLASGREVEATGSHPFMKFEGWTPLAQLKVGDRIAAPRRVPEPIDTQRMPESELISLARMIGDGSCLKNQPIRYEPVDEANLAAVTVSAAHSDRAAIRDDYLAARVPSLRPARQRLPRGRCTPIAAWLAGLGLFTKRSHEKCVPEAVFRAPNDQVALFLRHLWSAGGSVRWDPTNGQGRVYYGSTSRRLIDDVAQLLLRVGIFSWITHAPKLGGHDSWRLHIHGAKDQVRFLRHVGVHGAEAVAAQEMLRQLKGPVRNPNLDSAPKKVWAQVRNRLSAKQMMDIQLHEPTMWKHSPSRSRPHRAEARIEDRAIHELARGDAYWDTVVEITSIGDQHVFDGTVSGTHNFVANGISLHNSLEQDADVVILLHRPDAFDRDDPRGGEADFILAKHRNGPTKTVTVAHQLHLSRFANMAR
# [23] = biological target: T4, Mannose-6-phosphate isomerase (Homo sapiens, UniProt P34949); test: inhibitors of human PMI, primary screen, biochemical, fluorescence intensity, coupled assay (AID 1209)
# T4 sequence (P34949 whole entry): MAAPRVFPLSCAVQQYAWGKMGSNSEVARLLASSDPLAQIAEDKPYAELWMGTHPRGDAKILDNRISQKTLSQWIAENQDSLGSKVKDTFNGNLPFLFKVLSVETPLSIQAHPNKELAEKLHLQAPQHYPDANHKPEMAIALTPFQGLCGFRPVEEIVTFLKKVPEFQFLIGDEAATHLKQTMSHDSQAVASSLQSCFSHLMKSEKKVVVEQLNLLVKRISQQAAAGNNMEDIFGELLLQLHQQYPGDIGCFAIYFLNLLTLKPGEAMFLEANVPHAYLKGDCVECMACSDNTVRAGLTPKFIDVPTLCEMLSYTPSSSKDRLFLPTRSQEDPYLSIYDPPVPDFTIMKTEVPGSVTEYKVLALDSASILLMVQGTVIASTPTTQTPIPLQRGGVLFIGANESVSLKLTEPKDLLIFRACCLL
# Genome polyprotein = Genome polyprotein (dengue virus type 2, UniProt P29990); test: Dengue-2 NS5 methyltransferase inhibitors, primary screen, biochemical, confirmation dose response (AID 588689); type: functional
# Protein RecA = biological target: T5, Protein RecA (Mycobacterium tuberculosis, UniProt P9WHJ3); test: Fluorescence Cell-Free Homogeneous Dose Retest to Identify Inhibitors of RecA-Intein Splicing Activity. [Related pubchem assays (depositor defined):AID2097, AID2223, AID489010, AID492950]; type: functional
# T5 sequence (P9WHJ3 whole entry): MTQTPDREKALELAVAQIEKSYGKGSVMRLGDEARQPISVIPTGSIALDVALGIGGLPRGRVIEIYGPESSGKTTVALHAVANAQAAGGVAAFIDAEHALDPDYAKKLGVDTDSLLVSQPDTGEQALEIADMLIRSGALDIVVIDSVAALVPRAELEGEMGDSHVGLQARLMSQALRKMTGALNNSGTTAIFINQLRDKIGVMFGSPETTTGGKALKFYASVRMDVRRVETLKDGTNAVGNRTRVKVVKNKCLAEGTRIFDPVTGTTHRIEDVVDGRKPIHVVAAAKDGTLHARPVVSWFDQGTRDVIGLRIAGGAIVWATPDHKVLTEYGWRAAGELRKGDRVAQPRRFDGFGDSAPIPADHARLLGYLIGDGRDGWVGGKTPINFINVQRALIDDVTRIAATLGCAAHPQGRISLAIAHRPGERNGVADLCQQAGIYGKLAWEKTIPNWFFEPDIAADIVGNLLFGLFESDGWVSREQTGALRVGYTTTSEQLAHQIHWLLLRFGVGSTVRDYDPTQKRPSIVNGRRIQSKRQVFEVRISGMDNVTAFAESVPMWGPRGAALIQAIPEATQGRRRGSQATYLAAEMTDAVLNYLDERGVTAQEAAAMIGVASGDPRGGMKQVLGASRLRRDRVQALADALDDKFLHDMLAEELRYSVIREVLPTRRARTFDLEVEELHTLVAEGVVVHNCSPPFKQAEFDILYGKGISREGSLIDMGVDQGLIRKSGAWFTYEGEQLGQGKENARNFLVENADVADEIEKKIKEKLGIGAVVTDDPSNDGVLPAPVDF
# [24] = biological target: T4, Mannose-6-phosphate isomerase; test: human PMI inhibitors, high substrate, primary screen, biochemical, fluorescence intensity, high mannose 6-phosphate (AID 1220)
# T1 sequence (Q92731 whole entry): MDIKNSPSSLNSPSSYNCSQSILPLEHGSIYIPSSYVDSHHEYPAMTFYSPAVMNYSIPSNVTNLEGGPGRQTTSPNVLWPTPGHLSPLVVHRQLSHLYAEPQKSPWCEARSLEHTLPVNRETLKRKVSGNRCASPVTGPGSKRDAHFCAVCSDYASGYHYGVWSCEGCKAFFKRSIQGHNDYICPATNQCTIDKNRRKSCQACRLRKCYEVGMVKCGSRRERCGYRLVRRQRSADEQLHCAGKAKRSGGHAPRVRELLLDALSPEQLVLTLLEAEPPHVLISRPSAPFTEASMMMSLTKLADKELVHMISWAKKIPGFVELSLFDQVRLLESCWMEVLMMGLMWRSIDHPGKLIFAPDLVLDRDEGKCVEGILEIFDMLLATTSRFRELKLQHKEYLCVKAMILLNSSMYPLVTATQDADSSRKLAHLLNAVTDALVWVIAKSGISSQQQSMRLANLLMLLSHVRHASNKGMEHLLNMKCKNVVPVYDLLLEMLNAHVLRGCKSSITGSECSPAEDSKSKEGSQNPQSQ
# Chain of Luciferin 4-monooxygenase (P08659 whole entry): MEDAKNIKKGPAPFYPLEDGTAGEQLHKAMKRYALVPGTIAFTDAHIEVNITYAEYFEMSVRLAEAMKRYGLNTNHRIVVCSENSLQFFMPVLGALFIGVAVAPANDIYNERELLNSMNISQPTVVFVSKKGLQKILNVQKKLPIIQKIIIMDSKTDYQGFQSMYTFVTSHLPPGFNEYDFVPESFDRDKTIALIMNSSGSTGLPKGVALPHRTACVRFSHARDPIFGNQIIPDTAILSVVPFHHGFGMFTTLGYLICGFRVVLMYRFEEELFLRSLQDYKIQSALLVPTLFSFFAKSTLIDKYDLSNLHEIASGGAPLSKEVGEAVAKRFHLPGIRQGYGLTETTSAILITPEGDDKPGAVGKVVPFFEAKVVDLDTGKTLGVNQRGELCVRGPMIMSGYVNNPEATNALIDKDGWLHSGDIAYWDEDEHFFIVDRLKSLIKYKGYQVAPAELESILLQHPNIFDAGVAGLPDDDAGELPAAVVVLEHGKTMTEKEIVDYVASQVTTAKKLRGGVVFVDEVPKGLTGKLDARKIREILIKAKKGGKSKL
# Chain of Genome polyprotein (P29990 2492-3391 limits assumed): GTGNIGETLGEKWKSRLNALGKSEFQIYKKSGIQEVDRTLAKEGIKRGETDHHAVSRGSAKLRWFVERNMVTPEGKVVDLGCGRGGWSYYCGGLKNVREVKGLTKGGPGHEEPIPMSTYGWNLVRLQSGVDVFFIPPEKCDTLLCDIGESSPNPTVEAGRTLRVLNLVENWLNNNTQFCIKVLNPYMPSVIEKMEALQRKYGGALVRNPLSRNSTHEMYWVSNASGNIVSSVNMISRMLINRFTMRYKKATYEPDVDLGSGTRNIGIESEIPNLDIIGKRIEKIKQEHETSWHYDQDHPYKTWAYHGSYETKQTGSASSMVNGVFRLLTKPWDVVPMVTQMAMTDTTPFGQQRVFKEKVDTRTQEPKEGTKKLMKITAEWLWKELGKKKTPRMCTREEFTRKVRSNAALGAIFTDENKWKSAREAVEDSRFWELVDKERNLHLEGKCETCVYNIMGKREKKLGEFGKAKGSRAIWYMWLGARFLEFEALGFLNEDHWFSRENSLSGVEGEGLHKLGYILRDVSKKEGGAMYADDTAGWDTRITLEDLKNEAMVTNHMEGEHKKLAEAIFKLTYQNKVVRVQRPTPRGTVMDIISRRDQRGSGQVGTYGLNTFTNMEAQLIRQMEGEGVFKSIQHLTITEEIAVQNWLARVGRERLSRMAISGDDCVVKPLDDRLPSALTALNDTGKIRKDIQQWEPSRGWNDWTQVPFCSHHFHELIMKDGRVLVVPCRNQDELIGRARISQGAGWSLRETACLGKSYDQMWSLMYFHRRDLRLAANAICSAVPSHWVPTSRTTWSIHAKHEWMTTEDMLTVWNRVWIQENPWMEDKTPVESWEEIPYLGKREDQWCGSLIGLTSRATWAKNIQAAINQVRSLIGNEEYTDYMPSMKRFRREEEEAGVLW
# Chain of Neuropeptide Y receptor type 2 (P49146 whole entry): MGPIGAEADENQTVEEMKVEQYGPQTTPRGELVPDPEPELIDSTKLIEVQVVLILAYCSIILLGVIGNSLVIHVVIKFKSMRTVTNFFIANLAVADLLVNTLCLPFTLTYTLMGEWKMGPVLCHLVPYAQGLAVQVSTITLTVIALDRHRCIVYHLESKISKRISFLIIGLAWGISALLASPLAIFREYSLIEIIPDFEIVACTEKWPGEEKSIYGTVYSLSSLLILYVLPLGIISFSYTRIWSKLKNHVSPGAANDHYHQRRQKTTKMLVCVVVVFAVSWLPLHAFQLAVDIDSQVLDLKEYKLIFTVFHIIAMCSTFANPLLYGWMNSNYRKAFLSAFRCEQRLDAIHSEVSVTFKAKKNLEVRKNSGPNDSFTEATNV
# Chain of Neuropeptide Y receptor type 1 (P25929 whole entry): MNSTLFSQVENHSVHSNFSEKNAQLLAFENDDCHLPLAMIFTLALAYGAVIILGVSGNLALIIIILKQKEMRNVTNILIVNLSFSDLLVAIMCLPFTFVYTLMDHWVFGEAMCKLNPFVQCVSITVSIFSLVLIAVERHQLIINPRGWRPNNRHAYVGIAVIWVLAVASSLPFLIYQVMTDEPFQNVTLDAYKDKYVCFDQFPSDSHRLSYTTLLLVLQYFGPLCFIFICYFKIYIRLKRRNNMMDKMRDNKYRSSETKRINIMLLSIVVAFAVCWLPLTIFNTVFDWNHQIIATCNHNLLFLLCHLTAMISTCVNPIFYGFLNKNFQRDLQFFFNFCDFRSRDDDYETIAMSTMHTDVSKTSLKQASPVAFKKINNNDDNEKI
compound,measurement,setting,value
Cc1ccc(-c2cc(C(=O)Nc3ccc4c(c3)OCCO4)c3ccccc3n2)cc1,EC50,[1],1.06 µM (active)
same,IC50,[2],5.35 µM (active)
same,EC50,[3],16.9 µM (active)
same,IC50,[4],5.01 µM (active)
O=C(CSc1ccccc1)N1c2ccccc2Sc2ccccc21,EC50,Streptococcus,239 µM (active)
CCOC(=O)Cn1cnc2sc3c(c2c1=O)CCC3,IC50,Estrogen receptor beta [5],106 µM (not active)
same,IC50,Estrogen receptor beta [6],3.62 µM (active)
CN1CCN(CCCN2c3ccccc3Sc3ccc(C(F)(F)F)cc32)CC1,IC50,[7],2.36 µM (active)
same,EC50,[8],7.72 µM (active)
same,IC50,[9],> 40 µM (inactive)
same,IC50,[10],3.23 µM (active)
same,IC50,[11],7.22 µM (inactive)
same,IC50,[12],2.72 µM (active)
same,IC50,[13],2.81 µM (active)
same,IC50,[14],0.565 µM (active)
same,EC50,[15],11.9 µM (active)
same,EC50,[16],11.7 µM (active)
same,IC50,[17],> 40 µM (inactive)
same,IC50,[18],2.63 µM (active)
same,IC50,[19],7.35 µM (inactive)
same,EC50,[20],11.9 µM (active)
same,IC50,[21],> 20 µM (inactive)
Cn1c(/N=C/c2c(O)ccc3ccccc23)nc2ccccc21,AC50,[22],7.16 µM (active)
same,IC50,[23],> 50 µM (not active)
same,IC50,Genome polyprotein,9.6 µM (active)
same,EC50,Protein RecA,5.19 µM (active)
same,IC50,[24],14.8 µM (active)
